Results published in the NIST ThermoML archive (doi:10.1016/j.jct.2015.09.024).
± gives the expanded uncertainty stated by the source.

Conditions: Liquid, ATR infrared spectroscopy

- vapor or sublimation pressure (295.45 K): 6020 ± 490 kPa
- vapor or sublimation pressure (297.05 K): 6240 ± 500 kPa
- vapor or sublimation pressure (299.05 K): 6520 ± 530 kPa
- vapor or sublimation pressure (302.65 K): 7090 ± 570 kPa
- vapor or sublimation pressure (303.25 K): 7180 ± 580 kPa
SMILES: O=C=O [carbon dioxide]
